Reference: patent US12441976B2, “Process for reducing the activity of microbial contamination in a yeast medium” (Lallemand Hungary Liquidity Management LLC, priority 2020, dated 2025)

Tested on: contaminating wild-type microbial cells (obtained from a commercial plant)
Test: laboratory scale model: antimicrobial treatment of pasteurized corn mash, change in pH after 12 hours
Assay type: cell-based
Method: A laboratory model has been developed to characterize the microbial activity of various components (in isolation and in combination). Briefly, cycloheximide and glucose are added to a pasteurized corn mash (step 010). At step 020, the pasteurized mash was supplemented with an antimicrobial composition and submitted to an acidic treatment. More specifically, at substep 021, an antimicrobial composition was added to the pasteurized mash. Then, at substep 022, contaminating wild-type microbial cells (obtained from a commercial plant) were added. Afterwards, at substep 023, the mash was submitted to an acidic treatment with sulfuric acid. The mash was held in such acidic conditions for 30 minutes at 33° C. (step 030). A base was then added to the acidic mash to increase the pH of the mixture (to a level suitable for the growth and metabolic activity of yeasts, step 040). The neutralized mash obtained after step 040 was maintained at 12 hours at 33° C. (step 050). Step 050 was used to allow, if any, the bacterial growth to measure the antimicrobial efficiency of the different treatments. At step 060, the pH and the presence of different metabolites (using HPLC) were determined.

Compound | inhibition, in words (organic acid alone, 0.1% w/v, pH 3.2) | antimicrobial effectiveness, in words (100 ppm nisin added after the pH was raised to 5.5)
O=CO [formate] | greater inhibition than acetate or D/L lactate only | 
nisin |  | more effective than adding nisin as a part of the antimicrobial blend
